US20260015341A1, “PI3K INHIBITOR, PREPARATION METHOD THEREFOR, AND USE THEREOF” (HINOVA PHARMACEUTICALS INC., priority 2022, published 2026)

Assays:
[1] = system: MCF-10A cells; assay: Inhibitory effects on the proliferation of MCF-10A cells (CCK8); assay type: cell-based; conditions: Homo sapiens, 144 h, 6 days
Outline: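 MCF-10A cells seeded at 500 cells/well, cultured 24 h, then exposed to 9-point 3-fold dilutions from 10 μM final for 6 days at 37° C., 5% CO2. Viability by CCK8, 2–3 h, OD450 read; IC50 reported.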

[2] = system: T47D cells; assay: Inhibitory effects on the proliferation of T47D cells (CellTiter-Glo); assay type: cell-based; conditions: Homo sapiens, 168 h, 7 days
Outline: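 T47D cells (1000/well, RPMI 1640 + 10% FBS) cultured 24 h, then exposed 7 days at 37 °C to 9 compound concentrations, 3-fold dilutions from 10 μM final. Viability by CellTiter-Glo luminescence; IC50 derived.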

[3] = Pharmacokinetics in beagle dogs; assay type: in vivo; conditions: beagle dog; for AUC / half-life / clearance / Vd: male, plasma; for Vd: read-out: VSS
Procedure: Experimental Example 5: The Pharmacokinetics of the Compound According to the Present Invention in Beagle Dogs
(§1) 9 healthy adult male beagle dogs (three for each administration route of each compound) were fasted overnight (>12 h) before gavage, with free access to water; 4 hours after administration, rats could take food, and were administered via tail vein injection and gastric lavage, respectively. At different time points, forelimb venous blood sample was collected and anti-coagulated, wherein the anticoagulant was EDTA-K2 (the sample was placed in an ice bath after blood collection). The plasma was separated by centrifugation at 3200 g for 10 min, and stored at −70° C. for testing. The plasma concentration of compounds was determined by LC-MS/MS method.
(§2) The plasma concentration of compound at all time points was used to calculate the main pharmacokinetic parameters with Winnolin 8.3 non-compartmental model.
(§3) The area under the concentration-time curve AUCall value: calculated using the trapezoidal method; AUCinf=AUCall+Ct/ke, Ct is the plasma concentration at the last measurable time point, and ke is the elimination rate constant;
(§4) The clearance rate CL=D/AUCinf (D is the administration dosage);
The volume of distribution at steady state Vss=CL×MRT. The mean retention time MRT=AUMC/AUC;

[4] = target: PI3Kα[WT]/[E542K]/[E545K]/[H1047R]/PI3Kβ/γ/δ; assay: PI3K enzyme activity assay (ADP-Glo); assay type: biochemical; conditions: PI3K kinase reaction, isoform not given
Procedure: Experimental Example 1: PI3Kα[WT]/[E542K]/[E545K]/[H1047R]/PI3Kβ/γ/δ Enzyme Activity Assay
PI3Kα[WT], PI3Kα[E542K], PI3Kα[E545K], PI3Kα[H1047R], PI3Kβ, PI3Kγ and PI3Kδ kinase reaction was performed in 384-well plate (PerkinElmer, #6008280), with a reaction system of 4 μL. PI3Kα[WT] enzyme solution (Promega, #V1721) or PI3Kα[E542K] enzyme solution (CarnaBio, #11-413-20N) or PI3Kα[E545K] enzyme solution (CarnaBio, #11-414-20N) or PI3Kα[H1047R] enzyme solution (Promega, #V1741) or PI3Kβ enzyme solution (Promega, #V1751) or PI3Kγ enzyme solution (ThermoFisher, #PV4786) or PI3Kδ enzyme solution (ThermoFisher, #PV6451) were added to 384-well plate, and then gradiently diluted compounds were added (starting at a final concentration of 10 μM, 3-fold dilution, 10 doses), followed by adding PIP2: 3PS (Promega, #V1701) and ATP solution (Promega, #V915B) to the plate. After incubation at 25° C. for 1 h, ADP-Glo reagent buffer (Promega, #V9102) was added to each well. The plate was sealed and incubated at 25° C. for 40 min, and then 10 μL of ADP-Glo detection buffer (Promega, #V9102) was added to each well. After incubating at 25° C. for 40 min, the chemiluminescence value was read using an instrument.
The experimental results are shown in the ADP Glo IC50 column in Table 2.

[5] = Pharmacokinetics in rats; assay type: in vivo, SD rats; conditions: rat; for AUC / half-life / clearance / Vd: male, SD, plasma; for Vd: read-out: VSS
Procedure: Experimental Example 4: The Pharmacokinetics of the Compound According to the Present Invention in Rats
as §1, with “SD rats” for “beagle dogs”, “intravenous” for “forelimb venous”, “4° C. and 6000” for “3200”, “5” for “10”
as §2, §3
The elimination half life t1/2=0.693/ke;
as §4
The volume of distribution at steady state Vss=CL×MRT, The mean retention time MRT=AUMC/AUC;

[6] = po, ig (intragastric), 10 mg/kg
[7] = iv (tail vein injection), 1 mg/kg

Structure (SMILES) | IC50 [1] [µM] | IC50 [2] [µM] | F ([3]; ig (intragastric), 3 mg/kg) [%] | F ([3]; ig (intragastric), 10 mg/kg) [%] | AUC ([3]; po, ig (intragastric), 3 mg/kg) [ng·h/mL] | half-life ([3]; po, ig (intragastric), 3 mg/kg) [h] | AUC [3, 6] [ng·h/mL] | half-life [3, 6] [h] | AUC ([3]; iv, 1 mg/kg) [ng·h/mL] | clearance ([3]; iv, 1 mg/kg) [mL/min/kg] | half-life ([3]; iv, 1 mg/kg) [h] | Vd ([3]; iv, 1 mg/kg) [L/kg] | IC50 [4] [µM] | AUC ([5]; po, ig (intragastric), 3 mg/kg) [ng·h/mL] | half-life ([5]; po, ig (intragastric), 3 mg/kg) [h] | AUC [5, 7] [ng·h/mL] | clearance [5, 7] [mL/min/kg] | half-life [5, 7] [h] | Vd [5, 7] [L/kg] | F ([5]; ig (intragastric), 3 mg/kg) [%]
Cc1cc([C@@H](C)Nc2ccc(Cl)nc2C(=O)O)c2nc(-c3ccc(F)cn3)n(C)c(=O)c2c1 [Compound 66, (R)-6-chloro-3-((1-(2-(5-fluoropyridin-2-yl)-3,6-dimethyl-4-oxo-3,4-dihydroquinazolin-8-yl)ethyl)amino)pyridinecarboxylic Acid] | > 5 | < 1 | 74.5 | 49.1 | 4910 | 3.81 | 11000 | 7.7 | 2210 | 7.77 | 3.34 | 0.879 | < 1 | 4040 | 18 | 1390 | 10.9 | 3.44 | 2.2 | 89.0
C[C@@H](Nc1ccc(Cl)nc1C(=O)O)c1cc(F)cc2c(=O)n(C)c(-c3ccc(F)cn3)nc12 [Compound 74] | > 5 | < 1 | 52.4 | 62.8 | 3710 | 4.11 | 13700 | 12.7 | 2390 | 6.9 | 5.56 | 0.663 | < 1 | 1330 | 2.4 | 1010 | 16.6 | 2.73 | 1.33 | 44.8
